Measured values: patent US20260207551A1, “PHOSPHOGLICERATE DEHYDROGENASE INHIBITORS FOR THE TREATMENT OF FIBROSIS” (CHIESI FARMACEUTICI S.P.A., priority 2022, published 2026)

What was measured:
[1] = system: alpha smooth muscle actin (α-SMA); assay: TGF-b induced α-SMA expression in NHLFs (Western blot); assay type: cell-based, Human; conditions: 50 uM; NHLF, TGF-β (10 ng/ml) 48 h
Source text: The antifibrotic activity of compounds of the present invention has been monitored measuring the expression of fibrotic mediators, collagen I (Col-I) and alpha smooth muscle actin (α-SMA) after treatment in lung cells with TGF-β in comparison with Nintedanib (see Frank Hilberg et al, Cancer Res 2008 Jun. 15; 68(12):4774-82), and allosteric inhibitor NCT-503 (see Hamanaka et al., Am J Respir Cell Mol Biol. 2018 May; 58(5):585-593).
Human normal lung fibroblasts (NHLFs) were purchased from Lonza (Basel, Switzerland). NHFLs were cultured in Eagle's Minimum Essential medium (EMEM) w/o serine and glycine, supplemented with 10% Fetal Bovine Serum (FBS), antibiotics (50 U/ml penicillin and 0.05 mg/ml streptomycin) and 2 mM L-glutamine, in an atmosphere of 95% air and 5% CO2 at 37° C. NHLFs cultures were used between passage 1 and 9. Before all the experiments, cells were incubated overnight in serum-free medium.
NHLFs were seeded in 12-well plates at cultured until 70% of confluency. To examine the expression of fibrotic markers, cells were treated with different concentrations of Compounds and NCT-503 in EMEM medium for 1 h followed by stimulation with TGF-β for 48 h at 37° C., 5% CO2. Following cell treatments, medium was removed and whole cell extracts were prepared by directly adding to the well the 1× loading buffer (125 mM Tris-HCl pH 6.8, 4% SDS, 0.2% Orange G, 50% glycerol, 2.5% β-mercaptoethanol, Li-cor Biosciences), boiled for 5 min and then electrophoresed on Mini protean TGX gel 4-12% (Biorad). After electrophoresis, proteins were transferred to a nitrocellulose membrane. Immunodetection of Col-I, α-SMA and glyceraldeide 3-phosphate dehydrogenase (GAPDH) were obtained by using mouse anti-CollA1 (Santacruz), mouse anti-α-SMA (sigma) and rabbit anti-GAPDH (Cell Signaling Technology) all diluted at 1:1000 in TBS-tween 0.1%. […] Detection and quantification were performed with Odyssey imaging system (Li-cor) using GAPDH as loading control.

[2] = system: αSMA; assay: Phenotypic assay: high content aSMA staining in NHLF cells; assay type: cell-based, Human; conditions: for IC50: Homo sapiens, SMA, 72 h, read-out: aSMA pIC50 (converted)
Method: NHLF cells (Lonza #CC2512) were seeded as 2000 cells/well in 384-well plates in MEM medium w/o serine and glycine (Sigma #M2279)+1% pen/strep+5 mM L-glutamine +10% FBS and incubated overnight at 37° C., 5% CO2.
The next day, cells were washed with PBS and starvation MEM medium w/o serine and glycine (0% FBS) was added and cells were incubated overnight at 37° C., 5% CO2. The day after, cells were pre-incubated with compounds or vehicle (0.3% DMSO) for 1 h. Compounds were tested at 9 consecutive 3-fold dilutions starting from 30 μM. Each compound was tested in duplicate. Cells were further incubated for 72 h at 37° C., 5% CO2, 95% humidity. After 72 h of incubation, αSMA expression was quantified using immunostaining: • Fixation in 4% paraformaldehyde, • Blocking with 3% BSA, 2% FBS, 0.2% Triton-X in PBS, • Primary ab. anti-αSMA (AbCam #ab7817) diluted 500× in blocking buffer • Anti-mouse secondary ab. AF488 (ThermoFisher #A11029) • % of αSMA positive cells was determined by High Content Imaging (Molecular Device), data analysis was performed using MetaXpress software (Molecular Devices) and % of αSMA positive was further used to calculate % of inhibition for tested compounds. Total cell number was determined by Hoechst staining and % of viability over TGFβ stimulated controls was calculated.

[3] = system: bleomycin-induced pulmonary fibrosis; assay: Bleomycin-induced pulmonary fibrosis in male mice (Comparative Example 7); assay type: in vivo; conditions: for lung/body weight: NCT-503 100 mg/kg/day, Nintedanib esylate 60 mg/Kg/day
Method: The allosteric inhibitor NCT-503 has accordingly been assessed in the same murine model of Compound 19. Comparative Example 7 was carried out under the same experimental conditions of Example 5.
The treatment was stopped at day 10, after 4 days of treatment with NCT-503 600 mg/kg/day. After two days wash-out, the treatment re-started with a once daily regimen at the final dose of […].
The final dose was of 100 mg/kg/day.

[4] = Plasma and brain exposure after the last dose in bleomycin model (Comparative Example 7); assay type: in vivo, mice; conditions: after the last oral dose; 0.5 h, 2 h and 7 h
Method: Plasma and tissue exposures of NCT-503 were determined as described in Example 2. The plasma and brain concentrations of NCT-503 were determined by a liquid chromatography-tandem mass spectrometry (LC/MS/MS) assay. Plasma or tissue homogenate samples (tissues were homogenized with a water/acetonitrile 50/50 mixture) were extracted with 3 volumes of acetonitrile. Supernanatant was injected into HPLC system (Agilent 1260 Quaternary Pump equipped with an Agilent 1200 High Performance Autosampler SL; Agilent), using a Kinetex EVO C18 analytical column (100 A, 50×2.1 mm, 2.6 μm; Phenomenex). The mobile phases consisted of 0.1% formic acid in water (solvent A) and 0.1% formic acid in acetonitrile (solvent B); chromatographic separation was performed with gradient elution method (0.0-0.5 min, 5% B; 0.5-4.0 min, gradient to 90% B; 4.0-5.5 min, 90% B; 5.5-7.0 min, gradient to 5% B; 7.0-11.0 min, 5% B—flow rate: 0.3 mL/min).
Mass spectrometric analysis was performed on a linear ion trap triple quadrupole mass spectrometer (4000 Q TRAP; AB SCIEX) equipped with a turbo spray ion source; mass spectrometer was operated in positive ion mode and quantification was achieved by multiple reaction monitoring (MRM) mode. Peak integration was performed using Analyst (version 1.6.2.). […]
Plasma and brain exposure of NCT-503 was determined following the last oral dose at three timepoints (0.5 h, 2 h and 7 h).

[5] = system: bleomycin-induced pulmonary fibrosis; conditions: treated mice 7 days after intratracheal instillation of bleomycin; cited from earlier work
[6] = system: bleomycin-induced pulmonary fibrosis; assay: Bleomycin-induced pulmonary fibrosis in male mice (Example 6); assay type: in vivo, Male C57BL6/J mice; conditions: Nintedanib esylate 50 mg/Kg bid
Method: The effect of Compound 19a was evaluated in a murine model (C57BL/6J mouse strain) in which fibrosis was induced by a double oropharyngeal (OA) instillation of bleomycin. The Compound 19a was administered under therapeutic regimen for 14 days, starting the treatments at day 7 from the first instillation of Bleomycin OA up to the day 21, considered the endpoint for this model.
All mice were maintained under pathogen-free conditions and had free access to food and water.
Lung injury was induced by double OA instillation of bleomycin hydrochloride (BLM, BAXTER, Deerfield, IL, USA) at day 0 and day 4 at the dose of 0.03 U/mouse in […] of saline solution (NaCl 0.9%). Control animals received double OA instillation of […] of saline solution.
The Compound 19a was orally administered twice daily at the three doses of 3, 30 and 100 mg/Kg 10 mL/Kg, using as vehicle for dissolution the 0.5% Tween 80, 0.5% Methylcellulose in H2O.
On day 21, the respiratory system mechanics were measured using the FlexiVent System (SCIREQ Inc., Montreal Qc, Canada) (Vanoirbeek et al., 2010).
Briefly, mice were anesthetized by intraperitoneal injection of ketamine (Anesketin®, Dechra Inc., Handelsweg, NL) and xylazine (Xilagesic®, Calier Inc., Barcelona, ES) solution (100 mg/Kg and 10 mg/Kg, respectively). Once anesthesia was achieved, to analyze forced vital capacity (FVC), anesthetized mice were tracheotomized using an 18-gauge metal cannula, connected via an endotracheal cannula to the FlexiVent and ventilated at a respiratory rate of 150 breaths/min and tidal volume of 10 mL/Kg against a positive end-expiratory pressure of 3 cm H2O to achieve a mean lung volume close to that during spontaneous breathing. To prevent spontaneous breathing mice also received pancuronium bromide at 1 mg/Kg intraperitoneally. FlexiVent software version 8.1 was used to perform the perturbations.
Immediately after the in-life evaluation, plasma and bronchoalveolar lavage fluid (BALF) samples were collected.
First, blood was collected by cardiac puncture, and plasma was obtained after centrifugation of blood at 2000×g and 4° C. for 10 minutes.
Subsequently, the lungs were gently rinsed three times using a tracheal cannula with 0.6 mL of clear BAL solution. The obtained BALF was centrifuged at 1000×g and 4° C. for 10 minutes. The cell-free supernatant was used for biomarkers quantitative determination.
The following biomarkers were determined in BALF and plasma samples by commercially available ELISA kits: Collagen I (evaluated in BALF), an index of collagen accumulation; matrix metallopeptidase 7 (MMP-7, evaluated in BALF), indicator of aberrant fibrogenesis and ECM remodeling and surfactant protein D (SP-D, evaluated in PLASMA), marker of alveolar epithelial cell damage and dysfunction.
Lastly, the entire lungs were resected, fixed with formalin and embedded in paraffin. Sections were stained with Masson's trichrome to assess the grade and severity of fibrosis and collagen deposition.

[7] = system: bleomycin-induced pulmonary fibrosis; assay: Bleomycin-induced pulmonary fibrosis in male mice (Example 5)
Method: Male C57BL6/J mice (7-8 weeks old) were purchased from the Envigo RMS (San Pietro al Natisone (UD), Italy). All mice were maintained under pathogen-free conditions and were provided food and water ad libitum.
Lung injury was induced by double oropharyngeal instillation of Bleomycin hydrochloride (BLM, BAXTER) at day 0 and day 4 at the doses of 0.02 U/mouse in 50 μl of saline solution (0.9%). Control animals received double oropharyngeal instillation of 50 μl of saline solution.
Compound 19 was orally administered twice daily, starting on day 7 after the first oropharyngeal administration of bleomycin at the two doses of 400 and 600 mg/kg/day, 10 ml/kg, dissolved in 0.5% Tween 80, 0.5% Methylcellulose in H2O and treatment lasted for two weeks.
A group of animals was treated with Nintedanib esylate salt, at the dose of 60 mg/kg/day, 10 ml/kg, once daily, to compare the efficacy of the test compounds with an FDA approved drug for the treatment of IPF patients. Control mice were given vehicle-only over the same time intervals. Weight of all animals has been assessed twice a week starting from day 0 until day 21.
On days 21, mice were anesthetized by intraperitoneal injection of thiopental (200 mg/kg/10 ml; pentothal sodium, MSD Animal Health Srl). Blood was withdrawn by cardiac puncture and collected in heparine tubes. Plasma was obtained after centrifugation of blood at 10,000 g for 10 min. Lungs were lavage with saline solution through the heart, formalin fixed and paraffin embedded, and sections were stained with Masson's Trichrome to evaluate the grade and severity of fibrosis and collagen deposition.
Masson's Trichrome stained slides were also scanned with NanoZoomer S60 (Hamamatsu Photonics K.K., Shizuoka, Japan) and acquired into the Visiopharm Integrator System (VIS; version 2017.2.4.3387) for a quantification of pulmonary fibrosis by automated analysis with the support of a VIS Analysis Protocol Package (APP). The present APP has been designed to identify and then quantify the fibrotic tissue, detecting accumulation of altered connective tissue, excess of collagen deposition and cellular density.
To quantify lung protein content and the levels of specific proteins as markers of fibrosis and collagen deposition, lungs from subgroups of animals were weighted, homogenized in Phosphate buffer solution (PBS) and proteins of interest were quantified by immunometric or colorimetric assays. Hydroxyproline content was determined using the Hydroxyproline Colorimetric Assay Kit (Sigma MAK008, USA) according to the manufacturer's protocol. WISP-1, CollagenI, pro-CollagenI and Elastin were determined by Elisa kits. Protein quantification was performed using DC Protein Assay (Bio-Rad Laboratories, Italy). Plasma serine levels were measured using the DL-Serine Assay Kit (Abcam, Cambridge, MA).

With `Cc1cc(C)nc(NC(=S)N2CCN(Cc3ccc(C(F)(F)F)cc3)CC2)c1` [NCT-503] the “TGF-b induced a-sma (% inh. 50 uM)” value [1] was 93%, the “aSMA pIC50” value ([2]; NHLF, 72 h incubation) was greater than 5.0 and the “expression of aSMA (in words)” value ([2]; after 72 hours of incubation) was “partially reduces the expression of aSMA”. For the same compound, the “fibrosis severity (FIG. 20B)” value ([3]; 100 mg/kg/day) was “not significant trend in reducing fibrosis severity”, the “Ashcroft score analysis (FIG. 20A)” value ([3]; 100 mg/kg/day, compared to vehicle-treated mice) was “did not result in diminished Bleomycin-induced lung fibrosis” and the body weight ([3]; 200 mg/kg/day) was “did not show a significant worsening of the body weight”. For the same compound, the tolerability ([3]; 600 mg/kg/day (bid)) was “did not tolerate”, the survival ([3]; 600 mg/kg/day then 300 mg/kg/day once daily) was 40% and the “weight loss compared to Day 0” value ([3]; 600 mg/kg/day, 4 days of treatment) was ~ 20%. The lung/body weight [3] was “do not induce reduction of lung/body weight”, the “levels of pro-CollagenI and WISP-1” value ([3]; lung homogenates) was “not affected” and the “circulating serine levels (de novo serine synthesis)” value ([3]; plasma) was “did not induce inhibition of de novo serine synthesis”. For the same compound, the main brain/plasma ratio [4] was 2.4 and the “attenuation of lung fibrosis” value [5] was “preliminary efficacy in attenuation of lung fibrosis”.
Compound `Cn1c(C(=O)NC2(c3ccc(C(C(=O)O)C4CC4)cc3)CCOC2)cc2c(Cl)c(Cl)ccc21` (racemic) [Compound 15, (±)-2-Cyclopropyl-2-(4-(3-(4,5-dichloro-1-methyl-1H-indole-2-carbox-amido)tetrahydrofuran-3-yl)phenyl)acetic acid] has an IC50 ([2]; NHLF, 72 h incubation) of 2000 nM.
Work on `COc1cc2c(cc(C(=O)NC3(c4ccc(C(C(=O)O)C(C)C)cc4)CCOC3)n2C)c(Cl)c1Cl` (racemic) [Compound 20, (±)-2-{4-[3-(4,5-dichloro-6-methoxy-1-methyl-1H-indole-2-amido)oxolan-3-yl]phenyl}-3-methylbutanoic acid] yielded an IC50 ([2]; NHLF, 72 h incubation) of 1260 nM.
Compound `CCC(C(=O)O)c1ccc(C2(NC(=O)c3cc4c(Cl)c(Cl)ccc4n3C)CCOC2)cc1` (racemic) [Compound 72, (±)-2-{4-[3-(4,5-dichloro-1-methyl-1H-indole-2-amido)oxolan-3-yl]phenyl}butanoic acid] has an IC50 ([2]; NHLF, 72 h incubation) of 1260 nM.
With `COC(=O)c1ccc2c(c1)NC(=O)/C2=C(\Nc1ccc(N(C)C(=O)CN2CCN(C)CC2)cc1)c1ccccc1` [Nintedanib, reference compound] the “reduction of Collagen I in BALF” value ([6]; Compound 19a 100 mg/Kg bid) was 56%, the “reduction of MMP-7 in BALF” value ([6]; Compound 19a 100 mg/Kg bid) was 86% and the “reduction of SP-D levels in plasma” value ([6]; Compound 19a 100 mg/Kg bid) was 87%. The “improvement of FVC decline” value ([6]; Compound 19a 100 mg/kg bid, vs BLM/vehicle) was “similarly to Nintedanib”, the lung/body weight [3] was “do not induce reduction of lung/body weight” and the “reduction of lung/body weight” value ([7]; Compound 19 highest dose (600 mg/kg/day), Nintedanib esylate 60 mg/kg/day, not significant) was −21%. The “body weight during 2-weeks of treatment” value ([7]; compared to BLM/Vehicle treated group) was “did not lose additional weight” and the “Ashcroft score (FIG. 11A)” value ([7]; day 21) was “reduced”.
For `Cn1c(C(=O)NC2(c3ccc(C(C(=O)O)C4CCCC4)cc3)CCOC2)cc2c(Cl)c(Cl)ccc21` (racemic) [Compound 16, (±)-2-cyclopentyl-2-{4-[3-(4,5-dichloro-1-methyl-1H-indole-2-amido)oxolan-3-yl]phenyl}acetic acid], the IC50 ([2]; NHLF, 72 h incubation) was 501 nM.
